Assay results as given in patent US9879303B2, “Chromogenic glucuronidase substrates and uses” (Glycosynth Limited, priority 2013, dated 2018).
Where a name gives a salt, the structure may show the parent alone.

Test system: E. coli clinical isolates
Assay: screen of strains in broth medium containing FAC
Format: cell-based
Design: key to colour: Red, Green, Black or Purple mean strong colour; Red, Green, Black or Purple mean strong colour; Red, Green, Black or Purple mean strong colour; Red, Green, Black or Purple mean strong colour; +/− means less colour than strong; Tr means a trace of colour, less than +/−; — means no colour
Settings: for colour: 37° C. 18 hours
Source text: In order to obtain a fuller picture of the sensitivity of the substrates, they were screened with 100 different clinical isolates of E. coli in a liquid medium containing FAC. The isolates were chosen at random from the Microbiology Department, Freeman Hospital, Newcastle Upon Tyne, UK. The effectiveness of the new substrates was compared with three other media which all contained indoxyl-β-D-glucuronides. One was a commercial medium, CPS ID 3 (bioMérieux SA, Lyon, France). […] This medium was employed as a control. Among the β-D-glucuronidase producing strains of E. coli there is a large variation in the quantity of the enzyme produced and it is almost certain that the CPS ID 3 medium has been rigorously optimised to allow good growth of all the target organisms and maximum expression of the target enzymes. Therefore, two indoxyl glucuronides, X-β-D-glucuronide CHA salt and Rose-β-D-glucuronide CHA salt were also tested in a simple agar medium to allow a direct comparison of the sensitivity of these Indoxyl glucuronides when used in a medium that has not been optimised for the growth of the target organism. The comparison of the results for Rose-β-D-glucuronide and the CPS ID 3 medium was of particular significance as the commercial medium also uses Rose-β-D-glucuronide for the detection of E. coli. For consistency, the four glucuronides were all chosen as their CHA salts. As already stated, it is not anticipated that the salt form is critical to their performance. Currently. X-β-D-glucuronide is often used as either the CHA salt or the sodium salt. Brenner and colleagues [K. P. Brenner et al, Appl. Environ. Microbiol., 59, 3534-3544, (1993)] found no difference in the performance of the CHA and sodium salt forms with their application using indoxyl-β-D-glucuronide, neither in respect of colour development nor in the recovery of E. coli.
The two indoxyl glucuronides used produce insoluble endpoints following hydrolysis, as does the CPS ID 3 medium. It was therefore necessary to test these two substrates on agar plates. In contrast, catechol-β-D-glucuronide (1) and DHN-β-D-glucuronide (2b) give much more soluble endpoints best suited to liquid media and were therefore tested in a broth medium. Each broth was prepared using proteose peptone (Oxoid, Basingstoke, UK) (2 g), NaCl (1 g) and FAC (100 mg) in DI water (180 mL). This mixture was autoclaved and cooled to room temperature before being dispensed into bijoux (100×1.8 mL). Catechol β-D-glucuronide CHA salt (1) or DHN-β-D-glucuronide CHA salt (2b) (60 mg) were each dissolved in water (20 mL) and filtered to sterilize before being aseptically dispensed into successive bijoux (0.2 mL) containing the broth solution. The broth/substrate solutions were then inoculated with bacterial suspensions made up to 0.5 McFarland standard (2 μL per bijoux). X-β-D-glucuronide CHA salt (Glycosynth Ltd, Warrington, UK) (10 mg) was dissolved in NMP (200 μL). Rose-β-D-glucuronide CHA salt (Glycosynth Ltd, Warrington, UK) (20 mg) was dissolved in NMP (200 μL). These solutions were then added to Columbia agar (Oxoid, Basingstoke, UK) (100 mL) and inoculated with bacterial suspensions made up to 0.5 McFarland standard (1 μL). The plates and broths were incubated at 37° C. for 18 hours in air.

[1] = 100 E. coli strains after 18 h incubation, broth

O=C(O)C1OC(Oc2ccccc2O)C(O)C(O)C1O [Compound 1, Catechol β-D-Glucuronide CHA Salt]
% Sensitivity [1]: 83%
Negative strains [1]: 17
Positive strains [1]: 83
colour (E. coli 260262P, broth): Black
colour (E. coli 260280Z, broth): Black
colour (E. coli 260310H, broth): Black
colour (E. coli 260313A, broth): —
colour (E. coli 260316T, broth): —
colour (E. coli 260327V, broth): Black
colour (E. coli 260330Y, broth): Black
colour (E. coli 260333P, broth): —
colour (E. coli 260345F, broth): Black
colour (E. coli 260348K, broth): Black
colour (E. coli 260354W, broth): Black
colour (E. coli 260364H, broth): Black
colour (E. coli 260370C, broth): Black
colour (E. coli 260375E, broth): Black
colour (E. coli 260390B, broth): —
colour (E. coli 260396Z, broth): Black
colour (E. coli 260398Q, broth): Black
colour (E. coli 260400N, broth): —
colour (E. coli 260401Q, broth): Black
colour (E. coli 260402H, broth): Black
colour (E. coli 260404W, broth): Black
colour (E. coli 260405P, broth): Black
colour (E. coli 260406A, broth): —
colour (E. coli 260406Y, broth): Black
colour (E. coli 260407F, broth): Black
colour (E. coli 260408C, broth): Black
colour (E. coli 260411Z, broth): Black
colour (E. coli 260412Q, broth): Black
colour (E. coli 260414H, broth): Black
colour (E. coli 260415Y, broth): Black
colour (E. coli 260416W, broth): Black
colour (E. coli 260417P, broth): Black
colour (E. coli 260422Y, broth): Black
colour (E. coli 260424P, broth): Black
colour (E. coli 260425A, broth): Black
colour (E. coli 260426F, broth): Black
colour (E. coli 260428T, broth): Black
colour (E. coli 260431N, broth): Black
colour (E. coli 260432E, broth): Black
colour (E. coli 260433H, broth): Black
colour (E. coli 260434Y, broth): Black
colour (E. coli 260435W, broth): Black
colour (E. coli 260436P, broth): Black
colour (E. coli 260437A, broth): —
colour (E. coli 260438F, broth): Black
colour (E. coli 260439C, broth): Black
colour (E. coli 260440S, broth): Black
colour (E. coli 260441G, broth): Black
colour (E. coli 260458Y, broth): Black
colour (E. coli 260459W, broth): Black
colour (E. coli 260463D, broth): Black
colour (E. coli 260464G, broth): Black
colour (E. coli 260471B, broth): —
colour (E. coli 260478N, broth): —
colour (E. coli 260479Q, broth): Black
colour (E. coli 260480M, broth): Black
colour (E. coli 260481J, broth): Black
colour (E. coli 260483R, broth): —
colour (E. coli 260485D, broth): Black
colour (E. coli 260486L, broth): Black
colour (E. coli 260492J, broth): Black
colour (E. coli 260494B, broth): Black
colour (E. coli 260495R, broth): Black
colour (E. coli 260497D, broth): Black
colour (E. coli 260502G, broth): Black
colour (E. coli 260503Z, broth): Black
colour (E. coli 260504N, broth): Black
colour (E. coli 260505Q, broth): —
colour (E. coli 260506E, broth): Black
colour (E. coli 260508Y, broth): Black
colour (E. coli 260509W, broth): Black
colour (E. coli 260510R, broth): Black
colour (E. coli 260511X, broth): Black
colour (E. coli 260514G, broth): —
colour (E. coli 260515Z, broth): Black
colour (E. coli 260521S, broth): Black
colour (E. coli 260522Z, broth): Black
colour (E. coli 260532S, broth): Black
colour (E. coli 260533G, broth): Black
colour (E. coli 260536Q, broth): Black
colour (E. coli 260537E, broth): —
colour (E. coli 260538H, broth): —
colour (E. coli 260539Y, broth): Black
colour (E. coli 260541R, broth): Black
colour (E. coli 260545G, broth): Black
colour (E. coli 260547N, broth): Black
colour (E. coli 260548Q, broth): Black
colour (E. coli 260549E, broth): Black
colour (E. coli 260553X, broth): —
colour (E. coli 260554D, broth): Black
colour (E. coli 260555L, broth): Black
colour (E. coli 260563B, broth): Black
colour (E. coli 260564R, broth): Black
colour (E. coli 260578D, broth): —
colour (E. coli 2603121P, broth): —
colour (E. coli 2604399E, broth): Black
colour (E. coli O157 non-toxigenic, broth): —
colour of positive solutions (broth with FAC, in words): greyish-black solutions, sometimes with black flakes
